US7179941B2, “Carbonylamino-substituted acyl phenyl urea derivatives, process for their preparation and their use” (Sanofi-Aventis Deutschland GmbH, priority 2003, dated 2007)

Each molecule was assayed against T1, human glycogen phosphorylase a (Homo sapiens, UniProt P06737) (assay: Glycogen phosphorylase a activity test). Settings: 10 μM test substance; GPa measured in reverse direction (glycogen synthesis from glucose 1-phosphate).
T1 sequence (P06737 1-847): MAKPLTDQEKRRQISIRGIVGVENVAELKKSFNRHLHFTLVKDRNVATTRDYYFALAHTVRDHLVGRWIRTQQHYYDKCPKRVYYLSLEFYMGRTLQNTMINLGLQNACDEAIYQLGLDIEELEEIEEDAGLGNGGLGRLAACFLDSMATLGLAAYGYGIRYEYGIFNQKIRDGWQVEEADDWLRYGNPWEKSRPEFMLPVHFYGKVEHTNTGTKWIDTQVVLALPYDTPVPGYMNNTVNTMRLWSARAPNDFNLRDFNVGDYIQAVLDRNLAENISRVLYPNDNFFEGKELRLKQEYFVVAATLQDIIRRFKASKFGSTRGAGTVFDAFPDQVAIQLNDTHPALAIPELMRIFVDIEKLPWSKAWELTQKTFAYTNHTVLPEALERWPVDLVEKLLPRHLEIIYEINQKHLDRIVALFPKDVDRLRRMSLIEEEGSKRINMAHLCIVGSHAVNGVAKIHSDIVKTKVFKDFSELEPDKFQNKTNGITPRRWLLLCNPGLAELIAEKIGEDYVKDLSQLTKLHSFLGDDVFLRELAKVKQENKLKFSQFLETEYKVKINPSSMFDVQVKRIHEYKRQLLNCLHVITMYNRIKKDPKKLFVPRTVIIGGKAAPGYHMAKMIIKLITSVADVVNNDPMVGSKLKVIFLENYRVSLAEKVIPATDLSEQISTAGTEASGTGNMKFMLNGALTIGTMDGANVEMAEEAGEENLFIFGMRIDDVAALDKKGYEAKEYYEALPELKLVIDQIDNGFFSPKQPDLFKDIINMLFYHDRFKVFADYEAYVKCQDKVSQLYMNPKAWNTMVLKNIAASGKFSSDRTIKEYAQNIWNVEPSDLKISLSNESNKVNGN
Assay type: biochemical
Procedure: Glycogen Phophorylase a Activity Test
The effect of compounds on the activity of the active form of glycogen phosphorylase (GPa) was measured in the reverse direction by monitoring the synthesis of glycogen from glucose 1-phosphate by determining the release of inorganic phosphate. All reactions were carried out as duplicate determinations in 96-well microtiter plates (half area plates, Costar No. 3696), and the change in absorption as a consequence of the formation of the reaction product was measured at the wavelength specified below in a Multiskan Ascent Elisa Reader (Lab Systems, Finland).
In order to measure the GPa enzyme activity in the reverse direction, the conversion of glucose 1-phosphate to glycogen and inorganic phosphate was measured by the general method of Engers et al. (Engers HD, Shechosky S, Madsen NB, Can J Biochem 1970 July;48(7):746–754) with the following modifications: human glycogen phosphorylase a (for example containing 0.76 mg of protein/ml (Aventis Pharma Deutschland GmbH), dissolved in buffer solution E (25 mM P-glycerophosphate, pH 7.0, 1 mM EDTA and 1 mM dithiotreitol) was diluted to a concentration of 10 μg of protein/ml with buffer T (50 mM Hepes, pH 7.0, 100 mM KCl, 2.5 mM EDTA, 2.5 mM MgCl2.6H2O) and addition of 5 mg/ml of glycogen. Test substances were prepared as a 10 mM solution in DMSO and diluted to 50 μM with buffer solution T. To 10 μl of this solution were added 10 μl of 37.5 mM glucose dissolved in buffer solution T and 5 mg/ml of glycogen, and also 10 μl of a solution of human glycogen phosphorylase a (10 μg of protein/ml) and 20 μl of 2.5 mM glucose 1-phosphate. The base value of the activity of glycogen phosphorylase a in the absence of test substance was determined by adding 10 μl of buffer solution T (0.1% DMSO). The mixture was incubated at room temperature for 40 minutes and the released inorganic phosphate was determined by means of the general method of Drueckes et al. (Drueckes P, Schinzel R, Palm D, Anal Biochem 1995 Sep. 1;230(1):173–177) with the following modifications: 50 μl of a stop solution of 7.3 mM of ammonium molybdate, 10.9 mM of zinc acetate, 3.6% of ascorbic acid, 0.9% of SDS are added to 50 μl of the enzyme mixture. After 60 minutes of incubation at 45° C., the absorption was measured at 820 nm. To determine the background absorption, the stop solution was added immediately after the addition of the glucose 1-phosphate solution in a separate reaction.

SMILES	inhibition at 10 µM	% Inhibition at 10 μM
COc1ccc(NC(C)=O)cc1NC(=O)NC(=O)c1cc(F)c(F)cc1Cl [Example 1, N-{3-[3-(2-Chloro-4,5-difluorobenzoyl)ureido]-4-methoxyphenyl}acetamide]	99%	–
COC(=O)C(=O)Nc1ccc(OC)c(NC(=O)NC(=O)c2cc(F)c(F)cc2Cl)c1 [Example 2]	–	99%
COc1ccc(NC(=O)C(=O)O)cc1NC(=O)NC(=O)c1cc(F)c(F)cc1Cl [Example 5]	–	99%
COc1ccc(NC(=O)CC(=O)O)cc1NC(=O)NC(=O)c1cc(F)c(F)cc1Cl [Example 6]	–	100%
COc1ccc(NC(=O)CCC(=O)O)cc1NC(=O)NC(=O)c1cc(F)c(F)cc1Cl [Example 7]	–	100%
COc1ccc(NC(=O)CCC(N)=O)cc1NC(=O)NC(=O)c1cc(F)c(F)cc1Cl [Example 8]	–	100%
COc1cc(C)c(NC(=O)NC(=O)c2cc(F)c(F)cc2Cl)cc1NC(=O)CC(=O)O [Example 11]	–	96%
COc1cc(C)c(NC(=O)NC(=O)c2cc(F)c(F)cc2Cl)cc1NC(=O)CCC(=O)O [Example 12]	–	90%
COc1cc(C)c(NC(C)=O)cc1NC(=O)NC(=O)c1cc(F)c(F)cc1Cl [Example 14]	–	91%
COC(=O)C(=O)Nc1cc(NC(=O)NC(=O)c2cc(F)c(F)cc2Cl)c(OC)cc1C [Example 15]	–	101%
COc1cc(C)c(NC(=O)C(=O)O)cc1NC(=O)NC(=O)c1cc(F)c(F)cc1Cl [Example 17]	–	100%
COc1cc(C)c(NC(=O)CC(=O)O)cc1NC(=O)NC(=O)c1cc(F)c(F)cc1Cl [Example 18]	–	99%
COc1cc(C(=O)O)c(NC(C)=O)cc1NC(=O)NC(=O)c1cc(F)c(F)cc1Cl [Example 19]	–	97%
COc1cc(C(=O)O)c(NC(=O)CC(=O)O)cc1NC(=O)NC(=O)c1cc(F)c(F)cc1Cl [Example 22]	–	96%
COc1cc(C(=O)O)c(NC(=O)CCC(=O)O)cc1NC(=O)NC(=O)c1cc(F)c(F)cc1Cl [Example 26]	–	97%
COCC(=O)Nc1ccc(OC)c(NC(=O)NC(=O)c2cc(F)c(F)cc2Cl)c1 [Example 27]	–	98%
CCC(=O)Nc1ccc(OC)c(NC(=O)NC(=O)c2cc(F)c(F)cc2Cl)c1 [Example 30]	–	101%
COc1ccc(NC(=O)C2CCCC2)cc1NC(=O)NC(=O)c1cc(F)c(F)cc1Cl [Example 33]	–	96%
COc1ccc(NC(=O)c2ccccc2OC)cc1NC(=O)NC(=O)c1cc(F)c(F)cc1Cl [Example 34]	–	97%
CC=CC(=O)Nc1ccc(OC)c(NC(=O)NC(=O)c2cc(F)c(F)cc2Cl)c1 [Example 35]	–	99%
COc1ccc(NC(=O)c2ccccc2F)cc1NC(=O)NC(=O)c1cc(F)c(F)cc1Cl [Example 36]	–	101%
COc1cccc(CC(=O)Nc2ccc(OC)c(NC(=O)NC(=O)c3cc(F)c(F)cc3Cl)c2)c1 [Example 41]	–	104%
COc1ccc(NC(=O)C(=O)c2c[nH]c3ccccc23)cc1NC(=O)NC(=O)c1cc(F)c(F)cc1Cl [Example 42]	–	83%
COc1ccc(NC(=O)c2cccc(F)c2)cc1NC(=O)NC(=O)c1cc(F)c(F)cc1Cl [Example 45]	–	97%
C=CCCC(=O)Nc1ccc(OC)c(NC(=O)NC(=O)c2cc(F)c(F)cc2Cl)c1 [Example 46]	–	102%
CCCCC(=O)Nc1ccc(OC)c(NC(=O)NC(=O)c2cc(F)c(F)cc2Cl)c1 [Example 47]	–	105%
CCOC(=O)CCC(=O)Nc1ccc(OC)c(NC(=O)NC(=O)c2cc(F)c(F)cc2Cl)c1 [Example 48]	–	97%
COc1ccc(NC(=O)CN)cc1NC(=O)NC(=O)c1cc(F)c(F)cc1Cl [Example 52]	–	101%
COc1ccc(NC(=O)CCCN)cc1NC(=O)NC(=O)c1cc(F)c(F)cc1Cl [Example 53]	–	100%

The remaining lines, values ahead:

inhibition at 10 µM	% Inhibition at 10 μM	SMILES
–	104%	COC(=O)CC(=O)Nc1ccc(OC)c(NC(=O)NC(=O)c2cc(F)c(F)cc2Cl)c1 [Example 3]
–	97%	COC(=O)CCC(=O)Nc1ccc(OC)c(NC(=O)NC(=O)c2cc(F)c(F)cc2Cl)c1 [Example 4]
–	95%	COC(=O)CC(=O)Nc1cc(NC(=O)NC(=O)c2cc(F)c(F)cc2Cl)c(C)cc1OC [Example 10]
–	94%	COc1cc(C)c(NC(=O)NC(=O)c2cc(F)c(F)cc2Cl)cc1NC(=O)C(=O)O [Example 13]
–	95%	COC(=O)CC(=O)Nc1cc(NC(=O)NC(=O)c2cc(F)c(F)cc2Cl)c(OC)cc1C [Example 16]
–	95%	CCOC(=O)c1cc(OC)c(NC(=O)NC(=O)c2cc(F)c(F)cc2Cl)cc1NC(C)=O [Example 20]
–	95%	COc1cc(C(=O)O)c(NC(=O)C(=O)O)cc1NC(=O)NC(=O)c1cc(F)c(F)cc1Cl [Example 25]
–	89%	COc1ccc(NC(=O)c2cccnc2)cc1NC(=O)NC(=O)c1cc(F)c(F)cc1Cl [Example 28]
–	98%	COc1ccc(NC(=O)c2cccs2)cc1NC(=O)NC(=O)c1cc(F)c(F)cc1Cl [Example 29]
–	98%	COc1ccc(NC(=O)C2CC2)cc1NC(=O)NC(=O)c1cc(F)c(F)cc1Cl [Example 31]
–	102%	COc1ccc(NC(=O)c2ccco2)cc1NC(=O)NC(=O)c1cc(F)c(F)cc1Cl [Example 32]
–	101%	COc1ccc(NC(=O)Cc2ccccc2)cc1NC(=O)NC(=O)c1cc(F)c(F)cc1Cl [Example 37]
–	102%	COc1ccc2oc(C(=O)Nc3ccc(OC)c(NC(=O)NC(=O)c4cc(F)c(F)cc4Cl)c3)cc2c1 [Example 38]
–	101%	COc1ccc(NC(=O)c2cc3cc(Cl)ccc3o2)cc1NC(=O)NC(=O)c1cc(F)c(F)cc1Cl [Example 39]
–	98%	COc1ccc(NC(=O)c2ccc(F)cc2)cc1NC(=O)NC(=O)c1cc(F)c(F)cc1Cl [Example 40]
–	101%	COc1ccc(NC(=O)C2CCC2)cc1NC(=O)NC(=O)c1cc(F)c(F)cc1Cl [Example 44]
–	99%	COc1ccc(NC(=O)COC(C)=O)cc1NC(=O)NC(=O)c1cc(F)c(F)cc1Cl [Example 49]
–	92%	COc1ccc(NC(=O)c2ccccc2OC(F)(F)F)cc1NC(=O)NC(=O)c1cc(F)c(F)cc1Cl [Example 51]
–	100%	CNCC(=O)Nc1ccc(OC)c(NC(=O)NC(=O)c2cc(F)c(F)cc2Cl)c1 [Example 54]
–	100%	COc1ccc(NC(=O)CCN)cc1NC(=O)NC(=O)c1cc(F)c(F)cc1Cl [Example 55]

Same assay, conditions: 10 μM test substance; GPa measured in reverse direction (glycogen synthesis from glucose 1-phosphate); 10 µM

% Inhibition at 10 μM	SMILES
98%	COc1ccc(NC(=O)C(C)C)cc1NC(=O)NC(=O)c1cc(F)c(F)cc1Cl [Example 43]
94%	COc1ccc(NC(=O)C(C)C)cc1NC(=O)NC(=O)c1cc(F)c(F)cc1Cl [Example 50]
